Experimental data as given in BindingDB's records for doi:10.1021/jm00108a008 (University of Minnesota, 1991).

How the values were obtained:
[1] = Binding affinity against Opioid receptor delta 1 was measured in the guinea pig brain membranes using [3H]DADLE in the presence of 1 uM unlabeled DAMGO as radioligand
[2] = as above; remark: listed apart in the source

Structure (SMILES)	Ki [1] [nM]	Ki [2] [nM]
Oc1ccc2c3c1O[C@H]1C4=C(C[C@@]5(O)C(C2)N(CC2CC2)CC[C@]315)C(c1ccccc1)C1=C(O4)[C@@H]2Oc3c(O)ccc4c3[C@@]23CCN(CC2CC2)C(C4)[C@]3(O)C1 (some centres not stated) [bis(4-cyclopropylmethyl-12-oxa-4-azapentacyclo[9.6.1.01,13.05,17.07,18]octadeca-7(18),8,10,14-tetraene-10,17-diol)4-phenyl-4H-pyran]	10	
Oc1ccc2c3c1O[C@H]1c4sc5c(c4C[C@@]4(O)C(C2)N(CC2CC2)CC[C@]314)C[C@@]1(O)C2Cc3ccc(O)c4c3[C@@]1(CCN2CC1CC1)[C@H]5O4 [bis(4-cyclopropylmethyl-12-oxa-4-azapentacyclo[9.6.1.01,13.05,17.07,18]octadeca-7(18),8,10,14-tetraene-10,17-diol)thiphene]		77
